Several values for one entry are separate records, joined by “and”; a condition that tells them apart may be missing. Equal values may be shown once. Read-outs that look alike come from different tables or passages of the source.
Molecular target: T1, human Kv3.1 channels (hKv3.1) (Homo sapiens, UniProt P48547)
T1 sequence (P48547 1-501 limits assumed): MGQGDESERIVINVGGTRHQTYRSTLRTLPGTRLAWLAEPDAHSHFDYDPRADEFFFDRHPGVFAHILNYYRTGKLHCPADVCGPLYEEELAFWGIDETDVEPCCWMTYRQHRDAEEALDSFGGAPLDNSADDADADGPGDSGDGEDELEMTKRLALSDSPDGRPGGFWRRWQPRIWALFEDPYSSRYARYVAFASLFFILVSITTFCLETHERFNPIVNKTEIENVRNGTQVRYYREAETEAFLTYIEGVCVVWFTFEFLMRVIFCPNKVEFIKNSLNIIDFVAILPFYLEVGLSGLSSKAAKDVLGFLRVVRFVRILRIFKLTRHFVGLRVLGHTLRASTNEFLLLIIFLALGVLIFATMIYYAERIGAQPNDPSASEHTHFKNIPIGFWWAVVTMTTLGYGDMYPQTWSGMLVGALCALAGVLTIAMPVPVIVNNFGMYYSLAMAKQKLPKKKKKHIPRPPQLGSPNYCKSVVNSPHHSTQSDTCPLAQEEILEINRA
Assay: Measurement of Kv3 channel modulation: Kv3.1 assay (IonWorks Quattro whole-cell electrophysiology)
Assay type: cell-based
Conditions: for Kv3.1 max R %: normalised to maximum effect of reference compound (50 microM)
Protocol: The ability of the compounds of the invention to modulate the voltage-gated potassium channel subtypes Kv3.4/Kv3.3/Kv3.2/Kv3.1 may be determined using the following assay. Analogous methods may be used to investigate the ability of the compounds of the invention to modulate other channel subtypes.
Human embryonic kidney (HEK)-hKv3.1 cell line is generated by transfecting HEK-293 cells with an expression vector with human Kv3.1 (NM_004976.4). Cells are cultured with MEM supplemented with 10% Heat-Inactivated FBS, 2 mM L-glutamine, 1% Penicillin-Streptomycin, and 0.6 mg/ml of Geneticin (G418). HEK-hKv3.1b cells were amplified in T175 cm2 flask at 37° C. with 5% CO2, using MEM amplification medium, containing the G418 selection antibiotic (0.6 mg/ml). Cells were detached every 3-4 days, using DPBS to wash twice the flask, then TrypLE to dislodge the cells, and re-plated at a density of 2-4×10^6 cells/flask.
The day of the experiment, cells are removed from the incubator and the culture medium removed. Cells are washed with 5 ml of Dulbecco's PBS (DPBS) calcium and magnesium free and detached by the addition of 3 ml Versene (Invitrogen, Italy) followed by a brief incubation at 37° C. for 5 minutes. The flask is tapped to dislodge cells and 10 ml of DPBS containing calcium and magnesium is added to prepare a cell suspension. The cell suspension is then placed into a 15 ml centrifuge tube and centrifuged for 2 min at 1200 rpm. After centrifugation, the supernatant is removed and the cell pellet re-suspended in 4 ml of DPBS containing calcium and magnesium using a 5 ml pipette to break up the pellet. Cell suspension volume is then corrected to give a cell concentration for the assay of approximately 3 million cells per ml.
Experiments are conducted at r.t. using IonWorks Quattro™ planar array electrophysiology technology (Molecular Devices Corp.) with PatchPlate™ PPC. Stimulation protocols and data acquisition are carried out using a microcomputer (Dell Pentium 4). Planar electrode hole resistances (Rp) are determined by applying a 10 mV voltage step across each well. These measurements are performed before cell addition. After cell addition and seal formation, a seal test is performed by applying a voltage step from −80 mV to −70 mV for 160 ms. Following this, amphotericin-B solution is added to the intracellular face of the electrode to achieve intracellular access. Cells are held at −70 mV. Leak subtraction is conducted in all experiments by applying 50 ms hyperpolarizing (10 mV) prepulses to evoke leak currents followed by a 20 ms period at the holding potential before test pulses.
For hKv3.2 and hKv3.1, assays from the holding potential of −70 mV, a first test pulse at −15 mV was applied for 100 ms and after 100 ms at −70 mV a second pulse at +40 mV was applied for 50 ms. Cells were then maintained for 100 ms at −100 mV and another pulse from […] to +40 mV (duration 50 ms) was applied to clamp later the voltage at −40 mV during 200 ms
The intracellular solution contains the following (in mM): K-gluconate 100, KCl 54, MgCl2 3.2, HEPES 5, adjusted to pH 7.3 with KOH. Amphotericin-B solution is prepared as 50 mg/ml stock solution in DMSO and diluted to a final working concentration of 0.1 mg/ml in intracellular solution.
Compounds of use in the invention (or reference compounds such as N-cyclohexyl-N-[(7,8-dimethyl-2-oxo-1,2-dihydro-3-quinolinyl)methyl]-N′-phenylurea) are dissolved in dimethylsulfoxide (DMSO) at a stock concentration of 10 mM. […] Each dilution (1 μL) is transferred to another compound plate and external solution containing 0.05% pluronic acid (66 μL) is added. 3.5 μL from each plate containing a compound of the invention is added and incubated with the cells during the IonWorks Quattro™ experiment. The final assay dilution is 200 and the final compound concentrations are in the range 50 μM to 50 nM.

[1] = Table 2, Example compounds, rounded to one decimal place, some compounds with two data sets (n given in cell), read-out: Kv3.1 pEC50 (converted)
[2] = Table 1, Reference Examples, current at -15 mV step, normalised to 50 microM reference compound, read-out: Kv3.1 pEC50 (converted)
[3] = Table 3, Reference Examples and corresponding Examples, rounded to one decimal place, read-out: Kv3.1 pEC50 (converted)

Row | Structure (SMILES) | Kv3.1 max R % (Table 2, Example compounds) | EC50 [1] | Kv3.1 max R % (Table 1, Reference Examples) | other results
1 | COc1cccc(Oc2ccc(-n3c(=O)[nH]c4cnc(C)nc43)cn2)c1 [Example 28, 9-[6-(3-methoxyphenoxy)-3-pyridyl]-2-methyl-7H-purin-8-one] | 140% | 3980 nM | – | –
2 | Cc1ccc(Oc2ccc(-n3c(=O)[nH]c4cncnc43)cn2)c2c1OCC21CC1 [Example 29, 9-[6-(7-methylspiro[2H-benzofuran-3,1′-cyclopropane]-4-yl)oxy-3-pyridyl]-7H-purin-8-one] | 117% | 158 nM | – | –
3 | Cc1ncc2[nH]c(=O)n(-c3ccc(Oc4cccc5c4C(C)(C)CO5)nc3)c2n1 [Example 30, 9-[6-[(3,3-dimethyl-2H-benzofuran-4-yl)oxy]-3-pyridyl]-2-methyl-7H-purin-8-one] | 123% | 126 nM | – | –
4 | Cc1ccc(Oc2ncc(-n3c(=O)[nH]c4cccnc43)cn2)c2c1OCC21CC1 [Example 31, 3-[2-(7-methylspiro[2H-benzofuran-3,1′-cyclopropane]-4-yl)oxypyrimidin-5-yl]-1H-imidazo[4,5-b]pyridine-2-one] | 217% | 200 nM | – | –
5 | O=c1[nH]c2c[nH]nc2n1-c1ccc(Oc2cccc3c2C2(CC2)CO3)nc1 [Example 34, 6-(6-spiro[2H-benzofuran-3,1′-cyclopropane]-4-yloxy-3-pyridyl)-2,4-dihydroimidazo[4,5-c]pyrazol-5-one] | 128% and 131% | 10000 nM | – | Kv3.1 pEC50 (Table 2, Example compounds, rounded to one decimal place, some compounds with two data sets (n given in cell)): 5.0 (n = 2)
6 | Cc1ccc(Oc2ccc(-n3c(=O)[nH]c4ccncc43)cn2)c2c1OCC21CC1 [Example 35, 3-[6-(7-methylspiro[2H-benzofuran-3,1′-cyclopropane]-4-yl)oxy-3-pyridyl]-1H-imidazo[4,5-c]pyridin-2-one] | 225% | 1000 nM | – | –
7 | O=c1[nH]c2ncccc2n1-c1ccc(Oc2cccc3c2C2(CC2)CO3)nc1 [Example 36, 1-(6-spiro[2H-benzofuran-3,1′-cyclopropane]-4-yloxy-3-pyridyl)-3H-imidazo[4,5-b]pyridin-2-one] | 113% | – | – | EC50 (Kv3.1 pEC50, Table 2, Example compounds, rounded to one decimal place, some compounds with two data sets (n given in cell)): 631 nM; EC50 (Kv3.1 pEC50, Table 3, Reference Examples and corresponding Examples, rounded to one decimal place): 631 nM
8 | Cc1ccc2[nH]c(=O)n(-c3cnc(Oc4cccc5c4C4(CC4)CO5)cn3)c2n1 [Example 37, 5-methyl-3-(5-spiro[2H-benzofuran-3,1′-cyclopropane]-4-yloxypyrazin-2-yl)-1H-imidazo[4,5-b]pyridin-2-one] | 124% | 126 nM | – | –
9 | Cc1cnc2c(c1)[nH]c(=O)n2-c1cnc(Oc2cccc3c2C2(CC2)CO3)cn1 [Example 38, 6-methyl-3-(5-spiro[2H-benzofuran-3,1′-cyclopropane]-4-yloxypyrazin-2-yl)-1H-imidazo[4,5-b]pyridin-2-one] | 122% | 200 nM | – | –
10 | Cc1ccc(Oc2ncc(-n3c(=O)[nH]c4cccnc43)cn2)c2c1OCC2(C)C [Example 39, 3-[2-[(3,3,7-trimethyl-2H-benzofuran-4-yl)oxy]pyrimidin-5-yl]-1H-imidazo[4,5-b]pyridin-2-one] | 215% | 1580 nM | – | –
11 | CC[C@H]1NC(=O)N(c2ccc(Oc3ccc(C)c4c3C3(CC3)CO4)nc2)C1=O [RE1, reference compound] | – | – | 157% | –
12 | CC[C@@H]1CN(c2ccc(Oc3ccc(C)c4c3C3(CC3)CO4)nc2)C(=O)N1 [RE2, reference compound] | – | – | 92% | EC50 [2]: 20000 nM
13 | Cc1ccc(Oc2ccc(N3C(=O)NC4COCC43)cn2)c2c1OCC21CC1 (stereo not drawn) [RE3, reference compound] | – | – | 30% | EC50 [2]: > 50100 nM
14 | Cc1ccc(Oc2ncc(N3C(=O)NC(C)(C)C3=O)cn2)c2c1OCC21CC1 [RE4, reference compound] | – | – | 158% | –
15 | Cc1ccc(Oc2ccc(N3C(=O)CC(C)(C)NC3=O)cn2)c2c1OCC21CC1 [RE5, reference compound] | – | – | 90% | EC50 [2]: 11200 nM
16 | Cc1ccc(Oc2ccc(N3C(=O)NCC(C)(C)C3=O)cn2)c2c1OCC21CC1 [RE6, reference compound] | – | – | 111% | EC50 [2]: 25100 nM
17 | Cc1ccc(Oc2ccc(N3CCNC3=O)cn2)c2c1OCC21CC1 [RE7, reference compound] | – | – | 29% | EC50 [2]: 39800 nM
18 | Cc1ccc(Oc2ccc(N3C(=O)CCNC3=O)cn2)c2c1OCC21CC1 [RE8, reference compound] | – | – | 140% | EC50 [2]: 25100 nM
19 | CC1(C)COc2cccc(Oc3ncc(-n4c(=O)[nH]c5cnccc54)cn3)c21 [RE9, reference compound] | – | – | – | EC50 [3]: > 50100 nM
20 | O=c1[nH]c2cnccc2n1-c1ccc(Oc2cccc(OC(F)(F)F)c2)nc1 [RE10, reference compound] | – | – | – | EC50 [3]: 2510 nM
21 | Cc1ccc(Oc2ccc(N3C(=O)NCc4cccnc43)cn2)c2c1OCC21CC1 [RE11, reference compound] | – | – | – | EC50 [3]: 2000 nM
